Laboratory results reported in patent US20150344535A1, “NEUROTROPHIN-TYROSINE KINASE RECEPTOR SIGNALING” (THE UNIVERSITY OF QUEENSLAND, priority 2012, published 2015).

What was measured:
motor neurons = assay: Motor neuron survival in SOD1G93A mutant mice; format: in vivo, mouse
Protocol: To determine whether c29 could reduce neuron death in a motor neuron mouse model, 60 day postnatal SOD1G93A mutant mice were injected subcutaneously by osmotic pump with 5 mg/kg of TAT-c29, scrambled peptide, or the peptide vehicle. After 115 days postnatal, neuron survival in the […] was determined.

[1] = Long term potentiation (LTP) in the hippocampus in vivo; design: species or system mouse
Text: In further support of this, LTP was induced in mice by standard methods, as previously described: Kameda et al. Transl Psychiatry. 2012 Jan. 31; 2:e72. Activation of latent precursors in the hippocampus is dependent on long-term potentiation. […] BDNF acting via TrkB is well established to enhance this type of synaptic activity, including specifically hippocampal late-phase LTP at CA1-CA3 synapses (as measured here), and mice with reduced BDNF secretion show deficits in this LTP (e.g. Y. Lu et al., 2008; An et al., 2008; Ninan et al., 2010). […] In FIG. 13, c29 10 mg/kg: n=3 animals; c29 5 mg/kg: n=2 animals; scrambled 10 mg/kg: n=3 animals, c57: n=2 animals.

[2] = system: C7-8 spinal cord motor neurons; assay: Motor neuron axotomy (median and ulnar nerve) in neonatal rat; format: in vivo; conditions: four day old rat, unilateral axotomy of the ulnar nerve, FIG. 7E
Protocol: Median and ulnar nerve axotomy was performed on 4 day-old Wistar rat pups as previously described (Cheema et al., 1996). Peptides (c29 and vehicle only; 100 nM) were applied via a 1 mm^3 cube of pluronic gel foam that was sutured to the proximal axonal stump (Cheema et al., 1996). After 5 days the animals were perfused with a 4% solution of paraformaldehyde in phosphate buffer. Cervical spinal cords were removed, after which serial sections were cut at 40 μm, mounted onto gelatin-coated slides and stained in 0.1% cresyl violet. Details of the counting procedure have been described previously (Cheema et al., 1994).
We next investigated whether c29 could prevent motor neuron death following growth factor withdrawal in vivo using a neonatal rat axotomy model. Following unilateral median and ulnar nerve transections of postnatal day 4 (P4) rat pups, c29 or the vehicle protein transduction domain (PTD4) was applied to the proximal site of transaction in a small cube of gel foam. After a 5-day recovery, the number of surviving C7-8 spinal cord motor neurons relative to the contralateral side was determined by histological counts. Such an axotomy causes 50% of the ipsilateral motor neurons to die (Cheema et al., 1996), with control peptide treatment having no effect on this degree of cell death (FIG. 7E, F). […]

Sequence: YARAAARNARAKRWNSCKQNKQGANSRPVNQTPPPEGEKL (TAT-c29 - Fusion of TAT with c29)
- enhancement of motor neuron survival (motor neurons; 5 mg/kg subcutaneously by osmotic pump from 60 days postnatal, read at 115 days postnatal): 30%
- motor neuron number (motor neurons; 5 mg/kg, 115 days postnatal, equivalent of wild-type): 10 motor neurons per section per dorsal horn
- LTP in the hippocampus ([1]; 5 mg/kg I.P, after the high frequency train): transient enhancement of LTP lasting only the first 6 minutes
- LTP in the hippocampus ([1]; 10 mg/kg i.p., vs scrambled peptide- or vehicle-treated animals): enhanced LTP
- protection from motor neuron loss [2]: significant protection from motor neuron loss
